Read-outs that look alike come from different tables or passages of the source.
How the values were obtained:
[1] = tested on: BALB/3T3; assay: In vitro antiproliferative assay on normal fibroblasts, SRB, 72 h; type: cell-based, mouse; conditions: for IC50: normal mouse fibroblasts BALB/3T3, 72 h, SRB, n.a. = not active in the range of concentrations used (up to 100 µM), read-out: IC50 [µM] ± SD [n = 5] Balb/3T3; for selectivity: IC50 value for BALB/3T3 line times bigger than for leukemia cells MV4-11: IC50 BALB/3T3 versus IC50 MV4-11
Description: (§1) The following human cancer cell lines, representing the most common types of cancer, were chosen for evaluation of the antiproliferative activity of the prepared sulfonamides: lung cancer (A549), breast cancer (MCF-7), colon adenocarcinoma (LoVo), and biphenotypic B cell myelomonocytic leukemia (MV4-11). As a reference, the normal mouse fibroblasts cell line (BALB/3T3) was applied. A549, LoVo and BALB/3T3 cell lines were purchased from the ATCC (American Type Culture Collection, Rockville, MD, USA), MCF-7 cell line—from EACC (The European Collection of Cell Cultures), and MV4-11 cell line was obtained from DSMZ (Leibniz Institute—German Collection of Microorganisms and Cell Culture, Braunschweig, Germany). All these lines were maintained at the Hirszfeld Institute of Immunology and Experimental Therapy (IIET) in Wrocław, Poland.
(§2) We used the following culture media: for A549 cell line: the mixture of RPMI 1640 and OptiMEM (1:1) medium (both from Gibco, Scotland, UK)), 2mM L-glutamine, 1mM sodium pyruvate (Sigma-Aldrich Chemie GmbH, Steinheim, Germany) and 5% fetal bovine serum (FBS; HyClone Laboratories, Logan, UT, USA). MCF-7 cells were cultured in Eagle’s medium (IIET, PAS, Wroclaw, Poland), 2mM L-glutamine and 10% of FBS supplemented with 0.8 mg/L of insulin (Sigma-Aldrich Chemie GmbH, Steinheim, Germany). For LoVo cell line, F12K medium was applied (American Type Culture Collection, Rockville, MD, USA-ATCC), with 5% FBS (HyClone Laboratories, Logan, UT, USA). MV4-11 cells were cultured in RPMI 1640/GlutaMax I medium (Gibco, Thermo Fisher Scientific, Leicestershire, UK) with 1 mM sodium pyruvate (Sigma-Aldrich Chemie GmbH, Steinheim, Germany) and 10% FBS (HyClone Laboratories). In case of BALB/3T3 cells, DMEM (Gibco, Thermo Fisher Scientific) supplemented with 2 mM L-glutamine and 5% FBS was used. Antibiotics: 100 U/mL penicillin (Polfa Tarchomin SA, Warsaw, Poland) and 100 µg/mL streptomycin (Sigma-Aldrich Chemie GmbH, Steinheim, Germany) were present in all the culture media; cells were cultured in a humid atmosphere containing 5% CO2 at 37 °C.
(§3) Twenty-four hours before addition of the tested compounds, each cell line was seeded in 96-well plastic plates (Sarstedt, Numbrecht, Germany) in an appropriate medium at 10^4 cells/well density, except MCF7 cell line: 0.75 × 10^4/well, and A549 cell line: 0.25 × 10^4/well. The studied cell lines were subjected to each of the tested sulfonamides at 4 different concentrations in the range of 100–0.1 µg/mL for 72 h. Cisplatin (Teva Pharmaceuticals, Poland) was used as a reference compound, and DMSO (Sigma-Aldrich Chemie GmbH, Steinheim, Germany) served as a solvent control at concentrations equivalent to these applied in the solutions of the tested sulfonamides. MTT assay was performed for leukemic cells, while sulforhodamine B assay (SRB) for the adherent cells.
(§4) After 72 h of incubation, cells were fixed in situ by gently adding of 50 µL per well of ice-cold 50% TCA (trichloroacetic acid, POCh, Gliwice, Poland) and were incubated at 4 °C for one hour. Each well was then washed five times with water, followed by addition of 50 µL of 0.4% solution of SRB (sulforhodamine B, Sigma-Aldrich Chemie GmbH, Steinheim, Germany) in 1% acetic acid (POCh, Gliwice, Poland), and plates were again incubated at RT for 0.5 h. Plates were washed five times with 1% acetic acid to remove the unbound dye. The stained cells were treated with 10 mM TRIS (Tris base, Sigma-Aldrich, Chemie GmbH, Steinheim, Germany). Absorbance at 540 nm in each well was read with Elisa plate reader (BioTek Synergy H4, Swindon, UK) using the Gen5 software.
(§5) The results are shown as average IC50 values (concentration of the compound causing inhibition of cell proliferation by 50%) ± standard deviation. IC50 values were determined using the Prolab-3 system based on Cheburator 0.4, a software developed by Nevozhay. At each concentration, sulfonamides were tested in triplicates in a single experiment. […]

[2] = tested on: A549; assay: In vitro antiproliferative assay, SRB, 72 h; type: cell-based, human; conditions: lung cancer A549, 72 h, n.a. = not active in the range of concentrations used (up to 100 µM), read-out: IC50 [µM] ± SD [n = 5] A549
Description: as §1, §2, §3, §4, §5

[3] = tested on: LoVo; assay: In vitro antiproliferative assay, SRB, 72 h; type: cell-based, human; conditions: colon adenocarcinoma LoVo, n.a. = not active in the range of concentrations used (up to 100 µM), read-out: IC50 [µM] ± SD [n = 5] LoVo
Description: as §1, §2, §3, §4, §5

[4] = tested on: MCF-7; assay: In vitro antiproliferative assay, SRB, 72 h; type: cell-based, human; conditions: n.a. = not active in the range of concentrations used (up to 100 µM), read-out: IC50 [µM] ± SD [n = 5] MCF-7
Description: as §1, §2, §3, §4, §5

[5] = tested on: MV4-11; assay: In vitro antiproliferative assay, MTT, 72 h; type: cell-based, human; conditions: biphenotypic B cell myelomonocytic leukemia MV4-11, 72 h, n.a. = not active in the range of concentrations used (up to 100 µM), read-out: IC50 [µM] ± SD [n = 5] MV4-11
[6] = Homo sapiens, MCF7, breast cancer MCF-7, 72 h

Row | IC50 ([2]; Homo sapiens) [µM] | IC50 ([3]; Homo sapiens) [µM] | IC50 [4, 6] [µM] | IC50 ([5]; Homo sapiens) [µM] | melting point [°C] | SMILES | IC50 [1] [µM] | selectivity: IC50 value for BALB/3T3 line times bigger than for leukemia cells MV4-11 [1] [times] | IC50 [2] [µM] | IC50 [3] [µM] | IC50 ([4]; breast cancer MCF-7, 72 h) [µM] | IC50 [5] [µM]
1 | 38.4 ± 2.61 | 33.7 ± 5.13 | 39.1 ± 7.14 | 16.1 ± 4.95 | – | CC(c1ccccc1)N1C2CCC(C2)C1CNS(=O)(=O)c1ccc(C(F)(F)F)cc1 (centres unmarked) [Compound 11e] | 37.5 ± 7.8 | – | – | – | – | –
2 | 7.66 ± 2.08 | 19.3 ± 6.71 | 54 ± 16 | 3.09 ± 1.56 | – | CC(c1ccccc1)N1C2CCC(C2)C1CNS(=O)(=O)c1ccc(-c2ccccc2)cc1 (centres unmarked) [Compound 11f] | 38.8 ± 7.88 | > 10 | – | – | – | –
3 | 14.1 ± 4.77 | 7.23 ± 16.2 | 33 ± 18.9 | 4.26 ± 3.97 | – | Cc1ccc(-c2ccc(S(=O)(=O)NCC3C4CCC(C4)N3C(C)c3ccccc3)cc2)cc1 (centres unmarked) [Compound 11g] | 45.3 ± 17.3 | > 10 | – | – | – | –
4 | 12.8 ± 1.38 | 15.8 ± 2.26 | 22.4 ± 4.31 | 13.8 ± 2.64 | – | COc1ccc(-c2ccc(S(=O)(=O)NCC3C4CCC(C4)N3C(C)c3ccccc3)cc2)cc1 (centres unmarked) [Compound 11h] | 12.4 ± 1.82 | – | – | – | – | –
5 | 2.98 ± 1.38 | 5.29 ± 2.56 | 10.3 ± 2.71 | 11.2 ± 2.14 | – | CC(c1ccccc1)N1C2CCC(C2)C1CNS(=O)(=O)c1ccc(-c2ccc(F)cc2)cc1 (centres unmarked) [Compound 11i] | 13.1 ± 2.68 | – | – | – | – | –
6 | 11.3 ± 0.93 | 12.4 ± 2.44 | 17.3 ± 2.29 | 7.15 ± 3.53 | 95 | C[C@@H](c1ccccc1)N1[C@H]2CC[C@H](C2)[C@H]1CNS(=O)(=O)c1ccc(-c2ccccc2F)cc1 [Compound 11j, 2’-fluoro-N-(((1S,3S,4R)-2-((S)-1-phenylethyl)-2-azabicyclo[2.2.1]heptan-3-yl)methyl)-[1,1’-biphenyl]-4-sulfonamide] | 12.3 ± 1.88 | – | – | – | – | –
7 | 16.4 ± 1.57 | 15.1 ± 4.94 | 12.8 ± 4.03 | 15.1 ± 3.16 | 128 to 129 | C[C@@H](c1ccccc1)N1C[C@@H](CNS(=O)(=O)c2ccc(-c3ccc(F)cc3)cc2)[C@@H]2CC[C@H]1C2 [Compound 12i, 4’-fluoro-N-(((1S,4S,5R)-2-((S)-1-phenylethyl)-2-azabicyclo[3.2.1]octan-4-yl)methyl)-[1,1’-biphenyl]-4-sulfonamide] | 18.4 ± 8.39 | – | – | – | – | –
8 | 84.4 ± 26.1 | 44.5 ± 10.9 | – | 56.1 ± 26.9 | – | CC(c1ccccc1)N1C2CCC(C2)C1CN(CC1C2CCC(C2)N1C(C)c1ccccc1)S(=O)(=O)c1ccc(-c2ccccc2)cc1 (centres unmarked) [Compound 13f] | – | – | – | – | – | –
9 | – | – | – | – | 96 to 98 | C[C@@H](c1ccccc1)N1C(CN(C[C@H]2[C@@H]3CC[C@@H](C3)N2[C@@H](C)c2ccccc2)S(=O)(=O)c2ccc(-c3ccc(F)cc3)cc2)[C@@H]2CC[C@H]1C2 (stereo partly drawn) [Compound 13i, 4’-fluoro-N-(((1S,3R,4R)-2-((S)-1-phenylethyl)-2-azabicyclo[2.2.1]heptan-3-yl)methyl)-N-(((1S,4R)-2-((S)-1-phenylethyl)-2-azabicyclo[2.2.1]heptan-3-yl)methyl)-[1,1’-biphenyl]-4-sulfonamide] | – | – | – | – | – | –

The next lines start with the compound.

Row | SMILES | IC50 ([2]; Homo sapiens) [µM] | IC50 ([3]; Homo sapiens) [µM] | IC50 [4, 6] [µM] | IC50 ([5]; Homo sapiens) [µM] | melting point [°C] | IC50 [1] [µM] | selectivity: IC50 value for BALB/3T3 line times bigger than for leukemia cells MV4-11 [1] [times] | IC50 [2] [µM] | IC50 [3] [µM] | IC50 ([4]; breast cancer MCF-7, 72 h) [µM] | IC50 [5] [µM]
10 | CC(c1ccccc1)N1CC(NS(=O)(=O)c2ccc(-c3ccccc3)cc2)C2CCC1C2 (centres unmarked) [Compound 9f] | 13.6 ± 1.1 | 14.5 ± 2.54 | 18.8 ± 3.25 | 8.76 ± 3.45 | – | 14.1 ± 2.63 | – | – | – | – | –
11 | COc1ccc(-c2ccc(S(=O)(=O)NC3CN(C(C)c4ccccc4)C4CCC3C4)cc2)cc1 (centres unmarked) [Compound 9h] | 9.13 ± 1.05 | 11.8 ± 2.46 | 16.3 ± 2.11 | 3.92 ± 1.74 | – | 15.1 ± 2.11 | ~3 | – | – | – | –
12 | C[C@@H](c1ccccc1)N1C[C@@H](NS(=O)(=O)c2ccc(-c3ccc(F)cc3)cc2)[C@@H]2CC[C@H]1C2 [Compound 9i, 4’-fluoro-N-((1S,4S,5R)-2-((S)-1-phenylethyl)-2-azabicyclo[3.2.1]octan-4-yl)-[1,1’-biphenyl]-4-sulfonamide] | 24.4 ± 0.9 | 13.3 ± 1.55 | 12.7 ± 4.91 | 12.3 ± 3.25 | 139 to 140 | 14.3 ± 3.18 | – | – | – | – | –
13 | O=S(=O)(NC[C@H]1N[C@H]2CC[C@@H]1C2)c1ccc(-c2ccc(F)cc2)cc1 [Compound 10i, N-((1S,3S,4R)-2-azabicyclo[2.2.1]heptan-3-ylmethyl)-4’-fluoro-[1,1’-biphenyl]-4-sulfonamide] | 32.9 ± 1.36 | 21.7 ± 3.52 | 18 ± 2.82 | 8.28 ± 2.21 | 155 | 24.4 ± 2.75 | ~4 | – | – | – | –
14 | C[C@@H](c1ccccc1)N1[C@H]2CC[C@H](C2)[C@@H]1CNS(=O)(=O)c1ccccc1 [Compound 11b, (1S,3R,4R)-N-((2-((S)-1-phenylethyl)-2-azabicyclo[2.2.1]heptan-3-yl)methyl) benzenesulfonamide] | – | – | – | 52.7 ± 14 | 107 to 109 | – | – | – | – | – | –
15 | Cc1ccc(S(=O)(=O)NC[C@H]2[C@@H]3CC[C@@H](C3)N2[C@@H](C)c2ccccc2)cc1 [Compound 11c, (1S,3R,4R)-4-methyl-N-((2-((S)-1-phenylethyl)-2-azabicyclo[2.2.1]heptan-3-yl)methyl) benzenesulfonamide] | – | 83.2 ± 11.8 | – | 29.6 ± 12.9 | 124 to 127 | – | – | – | – | – | –
16 | C[C@@H](c1ccccc1)N1[C@H]2CC[C@H](C2)[C@H]1CNS(=O)(=O)c1ccc(F)cc1 [Compound 11d, 4-fluoro-N-(((1S,3S,4R)-2-((S)-1-phenylethyl)-2-azabicyclo[2.2.1]heptan-3-yl)methyl)benzenesulfonamide] | – | 92.2 ± 12.7 | – | 43.6 ± 14.5 | 105 to 107 | – | – | – | – | – | –
17 | N.N.[Cl][Pt][Cl] [cisplatin, reference compound] | – | – | – | – | – | 10.7 ± 3.3 | – | 3.02 ± 1.79 | 11.8 ± 3.87 | 10.3 ± 6.23 | 1.78 ± 1.22

Reference: PMC7664408, “Biaryl Sulfonamides Based on the 2-Azabicycloalkane Skeleton—Synthesis and Antiproliferative Activity” (Materials, 2020)
